# Calls of active or inactive are those of the source. No cut-off for these calls is given here.
# Legend:
# Type in all cases: cell-based
# [1] = target: T1, Nuclear factor erythroid 2-related factor 2 (Mus musculus) (UniProt Q60795); experiment: Activation of NRF2 in mouse MLE12 cells assessed as increase in NRF2 level at 10 uM incubated for 6 hrs by immunoblot assay
# T1 sequence (whole entry): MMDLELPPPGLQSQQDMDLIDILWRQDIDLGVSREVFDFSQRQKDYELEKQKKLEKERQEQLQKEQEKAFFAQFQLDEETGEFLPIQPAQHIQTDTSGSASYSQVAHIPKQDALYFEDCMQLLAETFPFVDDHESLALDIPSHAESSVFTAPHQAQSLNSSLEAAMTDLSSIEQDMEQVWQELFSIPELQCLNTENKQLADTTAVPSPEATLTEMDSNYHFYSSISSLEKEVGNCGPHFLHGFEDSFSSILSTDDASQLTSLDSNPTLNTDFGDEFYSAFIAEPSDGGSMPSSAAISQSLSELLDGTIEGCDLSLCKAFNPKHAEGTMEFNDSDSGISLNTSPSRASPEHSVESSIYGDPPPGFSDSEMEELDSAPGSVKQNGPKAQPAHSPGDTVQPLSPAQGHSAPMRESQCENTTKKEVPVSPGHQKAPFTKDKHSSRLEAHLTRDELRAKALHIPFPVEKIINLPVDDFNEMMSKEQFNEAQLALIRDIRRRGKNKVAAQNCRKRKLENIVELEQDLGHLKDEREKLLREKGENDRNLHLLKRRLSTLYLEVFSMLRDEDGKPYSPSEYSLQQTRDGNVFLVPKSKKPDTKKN
# [2] = target: T1, Nuclear factor erythroid 2-related factor 2 (Mus musculus); experiment: Activation of NRF2 in mouse MLE12 cells assessed as induction of HMOX1 expression at 10 uM incubated for 6 hrs by immunoblot assay
# [3] = target: T1, Nuclear factor erythroid 2-related factor 2 (Mus musculus); experiment: Activation of NRF2 in mouse MLE12 cells assessed as induction of NQO1 expression at 10 uM incubated for 6 hrs by immunoblot assay
Compound,Activity [1],Activity [2],Activity [3]
COc1ccc(S(=O)(=O)N(CC(=O)O)c2ccc(N(CC(=O)O)S(=O)(=O)c3ccc(OC)cc3)c3ccccc23)cc1,Active,Active,
CCOC(=O)CN(c1ccc(NS(=O)(=O)c2ccc(OC)cc2)c2ccccc12)S(=O)(=O)c1ccc(OC)cc1,Active,Active,
COc1ccc(S(=O)(=O)Nc2ccc(N(CC(=O)O)S(=O)(=O)c3ccc(OC)cc3)c3ccccc23)cc1,,inactive,inactive
COc1ccc(S(=O)(=O)Nc2ccc(NS(=O)(=O)c3ccc(OC)cc3)c3ccccc23)cc1,Active,Active,

# From ChEMBL document CHEMBL3632561, “Probing the structural requirements of non-electrophilic naphthalene-based Nrf2 activators” (Eur J Med Chem, 2015)
